From patent US8815933B2 (EnVivo Pharmaceuticals, Inc., priority 2008, dated 2014) come the findings set out here.

In one assay the test system is normal subjects. The assay can be described thus: Digit Symbol Substitution Test (DSST) in SAD study. Particulars: daily dose as low as 1 mg. The format is in vivo, Human. The procedure: The impact of the test compound on cognition in normal subjects was assessed as described below. In these studies, subjects were treated with the test compound dissolved in cranberry juice.
The impact of the test compound on cognition in normal subjects was assessed in a SAD (Single Ascending Dose) study with the Digit Symbol Substitution Test (DSST). […] The positive effects of the test compound in the DSST indicate a beneficial effect on working memory and executive function.

Assay [1] concerns patients suffering from schizophrenia. The assay can be described thus: P50 sensory gating evoked response in schizophrenia patients. The format is in vivo, Human. How it is done:
The test described above was used to study the effect of the test compound on cognition in patients suffering from schizophrenia. Prior to testing, the patients were dosed with: 1 mg of the test compound daily, 0.3 mg of the test compound daily or were administered a placebo for 20 days. Subjects were tested as described below. P50 waves were elicited by clicks, 1 msec in duration, grouped in pairs in the classic S1-S2 sequence and presented through earpieces inserted into the auditory canals. Click intensity was adjusted individually to 50 dB above the hearing threshold. The offset-to-onset time from S1 to S2 was fixed at 500 msec. The offset-to-onset time between click pairs was varied from 7-11 sec. […] P50 response amplitude was calculated as the voltage difference between the P50 peak and the preceding negative trough. The P50 gating ratio was then calculated after (Olincy et al., 2006) as the amplitude of the P50 response to the second (test) stimulus divided by the amplitude of the P50 response to the first (conditioning) stimulus. […] The P50 amplitude difference (Fuerst et al., 2007) was also measured. […] Unfortunately, in the case of the P50/[…] gating study, it was necessary to discard several patients and post-treatment assignment time points from the analysis because, in those instances, a P50 waveform was not identifiable and therefore could not be measured. […]

On to `Cl.O=C(N[C@H]1CN2CCC1CC2)c1cc2cccc(Cl)c2s1`, for which the “cognition in Digit Symbol Substitution Test” value in the assay on normal subjects is “pro-cognitive effects”. Also, the “P50 amplitude difference (C-T), baseline-adjusted” value in assay [1] (1.0 mg daily for 20 days vs placebo, FIG. 1B, F=3.97, P=0.07) was “normalization at the high dose”. For the same compound, the “effects on the P50 component of the evoked response” value in assay [1] (limited to 1.0 mg dose, p=0.1) is on record as “technically not significant”.
